Assay results from the supplement of paper PMC10883282.

Legend:
Assay in all cases: relative viability vs DMSO control (72 h) (fraction); higher = more viable cells
HT1080 = test system: HT1080
Summary of the method: (§1)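 Plates held 72 h at 37 °C and 5% CO2 contained sarcoma cell lines seeded in 384-well format to reach 80–90% confluence, plus 2.5 µl of serially diluted compound added after 24 h. Source plate concentrations ran from 10 mM to 0.0002 mM, with 0.1% DMSO as vehicle and a 5 µM positive control. Percent growth from ATPLite readings, averaged over up to triplicate wells, gave relative viability. Values were rescaled with 1 as full and 0 as none.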

SW872 = test system: SW872
Summary of the method: as §1

SW1353 = test system: SW1353
Summary of the method: as §1

KHOS-NP = test system: KHOS-NP
Summary of the method: as §1

RD-ES = test system: RD-ES
Summary of the method: as §1

MES-SA = test system: MES-SA
Summary of the method: as §1

SK-ES-1 = test system: SK-ES-1
Summary of the method: as §1

SW684 = test system: SW684
Summary of the method: as §1

SK-LMS-1 = test system: SK-LMS-1
Summary of the method: as §1

G401 = test system: G401
Summary of the method: as §1

VA-ES-BJ = test system: VA-ES-BJ
Summary of the method: as §1

RD = test system: RD
Summary of the method: as §1

FC(F)(F)c1ccc(CNc2ccc(Cc3c[nH]c4ncc(Cl)cc34)cn2)cn1 [Pexidartinib]
Conditions | relative viability
G401, 0.00017 µM | 1.03
G401, 0.00051 µM | 1.036
G401, 0.00152 µM | 1.03
G401, 0.00457 µM | 1.05
G401, 0.01372 µM | 1.02
G401, 0.04115 µM | 1
G401, 0.1235 µM | 0.685
G401, 0.3704 µM | 0.9956
G401, 1.111 µM | 0.9873
G401, 3.333 µM | 0.95
G401, 10 µM | 0.8332
HT1080, 0.00017 µM | 1.14
HT1080, 0.00051 µM | 1.12
HT1080, 0.00152 µM | 1.12
HT1080, 0.00457 µM | 1.05
HT1080, 0.01372 µM | 1.1
HT1080, 0.04115 µM | 1.1
HT1080, 0.1235 µM | 1.06
HT1080, 0.3704 µM | 1.08
HT1080, 1.111 µM | 1.05
HT1080, 3.333 µM | 1.065
HT1080, 10 µM | 1.02
KHOS-NP, 0.00017 µM | 1.106
KHOS-NP, 0.00051 µM | 1.1
KHOS-NP, 0.00152 µM | 1.084
KHOS-NP, 0.00457 µM | 1.08
KHOS-NP, 0.01372 µM | 1.07
KHOS-NP, 0.04115 µM | 1.05
KHOS-NP, 0.1235 µM | 1.05
KHOS-NP, 0.3704 µM | 1.032
KHOS-NP, 1.111 µM | 1.024
KHOS-NP, 3.333 µM | 1.022
KHOS-NP, 10 µM | 0.987
MES-SA, 0.00017 µM | 0.96
MES-SA, 0.00051 µM | 0.947
MES-SA, 0.00152 µM | 0.954
MES-SA, 0.00457 µM | 0.936
MES-SA, 0.01372 µM | 0.911
MES-SA, 0.04115 µM | 0.934
MES-SA, 0.1235 µM | 0.923
MES-SA, 0.3704 µM | 0.883
MES-SA, 1.111 µM | 0.892
MES-SA, 3.333 µM | 0.872
MES-SA, 10 µM | 0.69
RD, 0.00017 µM | 1.12
RD, 0.00051 µM | 1.1
RD, 0.00152 µM | 1.12
RD, 0.00457 µM | 1.13
RD, 0.01372 µM | 1.13
RD, 0.04115 µM | 1.11
RD, 0.1235 µM | 1.12
RD, 0.3704 µM | 1.15
RD, 1.111 µM | 1.14
RD, 3.333 µM | 1.15
RD, 10 µM | 1.17
RD-ES, 0.00017 µM | 0.973
RD-ES, 0.00051 µM | 0.99
RD-ES, 0.00152 µM | 1.01
RD-ES, 0.00457 µM | 1.02
RD-ES, 0.01372 µM | 1.02
RD-ES, 0.04115 µM | 0.982
RD-ES, 0.1235 µM | 1.01
RD-ES, 0.3704 µM | 0.998
RD-ES, 1.111 µM | 0.977
RD-ES, 3.333 µM | 0.959
RD-ES, 10 µM | 0.969
SK-ES-1, 0.00017 µM | 1.05
SK-ES-1, 0.00051 µM | 1.03
SK-ES-1, 0.00152 µM | 1.02
SK-ES-1, 0.00457 µM | 1.07
SK-ES-1, 0.01372 µM | 1.04
SK-ES-1, 0.04115 µM | 1.06
SK-ES-1, 0.1235 µM | 1.03
SK-ES-1, 0.3704 µM | 1.03
SK-ES-1, 1.111 µM | 0.978
SK-ES-1, 3.333 µM | 1.02
SK-ES-1, 10 µM | 0.915
SK-LMS-1, 0.00017 µM | 1.03
SK-LMS-1, 0.00051 µM | 1.06
SK-LMS-1, 0.00152 µM | 1.05
SK-LMS-1, 0.00457 µM | 1.04
SK-LMS-1, 0.01372 µM | 1.03
SK-LMS-1, 0.04115 µM | 1.03
SK-LMS-1, 0.1235 µM | 1.05
SK-LMS-1, 0.3704 µM | 1.02
SK-LMS-1, 1.111 µM | 0.995
SK-LMS-1, 3.333 µM | 1
SK-LMS-1, 10 µM | 0.864
SW684, 0.00017 µM | 1.14
SW684, 0.00051 µM | 1.2
SW684, 0.00152 µM | 1.19
SW684, 0.00457 µM | 1.2
SW684, 0.01372 µM | 1.15
SW684, 0.04115 µM | 1.15
SW684, 0.1235 µM | 1.16
SW684, 0.3704 µM | 1.13
SW684, 1.111 µM | 1.13
SW684, 3.333 µM | 1.14
SW684, 10 µM | 1.12
SW872, 0.00017 µM | 1.12
SW872, 0.00051 µM | 1.13
SW872, 0.00152 µM | 1.1
SW872, 0.00457 µM | 1.08
SW872, 0.01372 µM | 1.05
SW872, 0.04115 µM | 1.06
SW872, 0.1235 µM | 1.05
SW872, 0.3704 µM | 1.03
SW872, 1.111 µM | 1.01
SW872, 3.333 µM | 0.999
SW872, 10 µM | 0.974
SW1353, 0.00017 µM | 1.07
SW1353, 0.00051 µM | 1.03
SW1353, 0.00152 µM | 0.993
SW1353, 0.00457 µM | 1.02
SW1353, 0.01372 µM | 0.988
SW1353, 0.04115 µM | 1.01
SW1353, 0.1235 µM | 1
SW1353, 0.3704 µM | 0.975
SW1353, 1.111 µM | 0.897
SW1353, 3.333 µM | 0.896
SW1353, 10 µM | 0.85
VA-ES-BJ, 0.00017 µM | 1.07
VA-ES-BJ, 0.00051 µM | 1.068
VA-ES-BJ, 0.00152 µM | 1.07
VA-ES-BJ, 0.00457 µM | 1.06
VA-ES-BJ, 0.01372 µM | 1.05
VA-ES-BJ, 0.04115 µM | 1.04
VA-ES-BJ, 0.1235 µM | 1.06
VA-ES-BJ, 0.3704 µM | 1.04
VA-ES-BJ, 1.111 µM | 1.03
VA-ES-BJ, 3.333 µM | 1.03
VA-ES-BJ, 10 µM | 1.05
